Legend:
[1] = test system: PANC-1 and AsPC-1 cell lines; test: analysis of migration (24-transwell); format: cell-based, human; settings: 24 hours
Protocol: PANC-1 and AsPC-1 cell lines were cultured using DMEM and RPMI-1640 media with 10% FBS added respectively in the upper chamber of 24-transwell at a concentration of 2×10^4 cells per well. After 24 hours, all the media in the upper chamber of 24-transwells were removed and replaced with DMEM and RPMI-1640 media without addition of 10% FBS to inhibit migratability of cell lines, so as to be in a starvation state. After 24 hours, the experimental group was added with 10% FBS in the lower chamber, and the control was added with 0% FBS in the lower chamber to observe migratability. 3% ACN, 200 μM control peptide (Ctrl-pep), MSLN-pep 25. For 50, 100, and 200 μM groups, the media in the upper chamber of 24-Transwell were removed, each drug was treated by concentration, and 10% FBS was treated in the lower chamber. Each group was cultured at 37° C. for 24 hours, and then the cells were photographed (original magnification, ×100) by concentration of each peptide. Cells were stained with crystal violet (0.1%), and the ImageJ, a computer program, was used for quantitative evaluation.
After pancreatic cancer cell lines PANC-1 and AsPC-1 were cultured in 24-transwells, all cells were starved for 24 hours to inhibit cell growth, and then treatment was performed in divided groups of 10% FBS, 0% FBS, 3% ACN+10% FBS, 200 μM NSSSVDK+10% FBS, 25 μM MSLN-pep+10% FBS, 50 μM MSLN-pep+10% FBS, 100 μM MSLN-pep+10% FBS, and 200 μM MSLN-pep+10% FBS.

mesothelin [2] = target: T1, mesothelin (Homo sapiens, UniProt Q13421); test: co-localization of TAMRA-labeled MSLN-pep with mesothelin antibody (confocal microscopy); format: cell-based; set-up: endogenous in cells; settings: AsPC-1, PANC-1, BxPC-3
Protocol: Pancreatic cancer cell lines AsPC-1, PANC-1, and BxPC-3 were cultured in a 4-well chamber and then treated with mesothelin antibodies to determine the location where mesothelin is expressed.
Target sequence in this assay (Q13421 with tags, fused parts or gaps limits assumed): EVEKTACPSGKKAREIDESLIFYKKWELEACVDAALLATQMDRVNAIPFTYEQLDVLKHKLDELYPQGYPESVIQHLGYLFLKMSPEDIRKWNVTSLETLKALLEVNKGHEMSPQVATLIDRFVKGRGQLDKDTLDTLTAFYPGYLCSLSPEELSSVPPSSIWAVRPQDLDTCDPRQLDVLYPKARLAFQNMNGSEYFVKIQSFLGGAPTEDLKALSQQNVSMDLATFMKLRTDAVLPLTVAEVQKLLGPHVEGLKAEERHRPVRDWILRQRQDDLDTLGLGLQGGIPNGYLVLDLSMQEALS

mesothelin [3] = target: T1, mesothelin; test: phage-binding ELISA and phage immunofluorescence staining of phage clones; set-up: GFP; host or cells: HEK293T; settings: phage clone, compared to other phage clones
Description: A phage peptide library based on the T7 415-1b phage vector, represented by CX7C (C, cysteine; X, any amino acid residue) was designed according to the manufacturer's instructions (Novagen, Madison, WI). The phage library has approximately 1×10^9 plaque-forming unit (pfu). In other words, HEK-293T cells transfected with a mesothelin-expressing plasmid pCMV6-AC-GFP vector were dispensed in a 35 mm dish and cultured to meet a confluency of 60-70%. For transient transfection of HEK-293T cells, the cells were treated with Lipofectamine 3000 (Invitrogen) and cultured for 48 hours. First, phage libraries with 1×109 plaque-forming unit (pfu) were cultured in untransfected HEK-293T cells at 4° C. for 30 minutes. […] The eluate was used for titration, the remaining eluted phage clones were lysed in 10 ml of LB medium for amplification for the next cycle, and the process was repeated 5 times. […]
To screen peptides specifically binding to mesothelin, the present inventors first prepared HEK-293T cells transiently transfected with a mesothelin-GFP plasmid. […] As a result of observing mesothelin-GFP expression via immunofluorescence analysis, transfection was detected at each time point compared to untransfected HEK-293T cells (FIG. 2A). […]
Target sequence in this assay (Q13421 with tags, fused parts or gaps): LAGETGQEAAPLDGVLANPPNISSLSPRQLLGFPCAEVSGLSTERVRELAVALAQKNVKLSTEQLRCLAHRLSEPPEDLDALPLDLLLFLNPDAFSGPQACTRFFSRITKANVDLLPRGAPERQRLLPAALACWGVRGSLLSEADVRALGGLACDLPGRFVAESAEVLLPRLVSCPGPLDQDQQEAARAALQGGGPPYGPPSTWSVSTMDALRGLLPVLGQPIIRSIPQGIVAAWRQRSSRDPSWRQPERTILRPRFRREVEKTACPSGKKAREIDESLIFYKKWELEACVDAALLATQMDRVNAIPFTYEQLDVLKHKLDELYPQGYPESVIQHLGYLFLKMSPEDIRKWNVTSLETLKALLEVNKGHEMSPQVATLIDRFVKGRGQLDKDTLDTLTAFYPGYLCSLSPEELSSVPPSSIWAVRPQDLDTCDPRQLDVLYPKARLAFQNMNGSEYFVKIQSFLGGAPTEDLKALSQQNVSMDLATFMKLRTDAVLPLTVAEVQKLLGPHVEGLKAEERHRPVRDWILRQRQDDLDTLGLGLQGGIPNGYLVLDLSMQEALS

[4] = test system: AsPC-1 cells expressing mesothelin; test: binding to AsPC-1 cells after mesothelin siRNA (confocal immunofluorescence and flow cytometry); format: cell-based, human; settings: for specific binding (flow cytometry): 25 μM MSLN-pep
Protocol: Mesothelin-specific siRNA (M-siRNA) and negative control siRNA (C-siRNA) were purchased from Bioneer and transfected with Lipofectamine RNAiMAX transfection reagent (Invitrogen) into AsPC-1, a pancreatic cancer cell line. After 24 hours of transfection, the media were replaced with a medium containing serum, followed by culture for an additional 24 hours.
After AsPC-1 cells were cultured for 24 hours, for suppression of mesothelin expression, transfection followed with C-siRNA, a non-specific siRNA, as well as M-siRNA, a mesothelin-specific siRNA. To detect the silencing of the mesothelin gene, the group was divided into one without treatment of siRNA, one with treatment of 100 nM C-siRNA, and one with treatment of 100 nM and 200 nM M-siRNA. Mesothelin antibody and MSLN-pep were then treated by 10 μM and 25 μM, respectively. Further, the results were identified by means of confocal microscopy via immunofluorescence analysis (FIG. 6A). […] Flow cytometry was performed to determine the expression level of mesothelin when siRNA was not treated to AsPC-1 cells and the expression level of mesothelin after C-siRNA and M-siRNA were treated, of which values were expressed in % binding with the mesothelin antibody and the mean fluorescence intensity (MFI). […] As a result of performing flow cytometry to determine the difference between the binding of 25 μM MSLN-pep when siRNA was not treated to AsPC-1 cells expressing mesothelin and the binding of 25 μM MSLN-pep after treating with C-siRNA and M-siRNA, when treated with no siRNA or treated with 100 nM C-siRNA, the specific binding of 25 μM MSLN-pep was approximately 78%, and when treated with 100 nM and 200 nM M-siRNA, it was approximately 15%. This series of results reveal the degree of mesothelin expression and the reduction of mesothelin expression when M-siRNA is treated. […] In brief, it was determined that MSLN-pep specifically binds to cells expressing mesothelin.

CC[C@H](C)[C@@H]1NC(=O)[C@H]([C@@H](C)O)NC(=O)[C@@H](N)CSSC[C@@H](C(=O)O)NC(=O)[C@H]([C@@H](C)O)NC(=O)[C@H](CC(C)C)NC(=O)[C@H](CO)NC(=O)[C@H](Cc2c[nH]c3ccccc23)NC(=O)[C@H](CC(C)C)NC1=O [MSLN-pep]
migratability compared to treatment of 10% FBS ([1]; 25 μM + 10% FBS): no difference in the migratability and invasiveness
migratability ([1]; 50, 100 and 200 μM + 10% FBS): suppressed with increasing concentrations of MSLN-pep
location of binding site relative to mesothelin expression (mesothelin [2]): binding took place at the same spot where the mesothelin is expressed
binding to mesothelin through phage ELISA and phage immunofluorescence staining (mesothelin [3]): binds to mesothelin in high degree
specific binding (flow cytometry) ([4]; 100 nM and 200 nM M-siRNA): approximately 15%
specific binding (flow cytometry) ([4]; no siRNA or 100 nM C-siRNA): approximately 78%
specific binding to mesothelin (confocal immunofluorescence) ([4]; 25 μM compared to 10 μM): higher specific binding to mesothelin
specific binding (confocal immunofluorescence) ([4]; M-siRNA 100 nM and 200 nM): decreased with the decrease of mesothelin expression
